Publication PMC10634346 (Cancer Research Communications, 2023)

Assays:
Format in all cases: cell-based, human
cPARP in SU-DHL-10 cells = test: In vitro washout, cPARP Western blot, SU-DHL-10; details: 1 µmol/L, 4 h treatment then washout
Experimental: (§1) Evaluation of the pharmacodynamic extent and duration of CDK9 inhibition were performed in vitro using the human DLBCL cell lines SU-DHL-4 and SU-DHL-10, harboring MYC amplification and MYC overexpression with P57T mutation, respectively. Cells were seeded 18 hours prior to treatment for 4 hours with one of three CDK9 inhibitors, enitociclib (0.25 and1 µmol/L), atuveciclib (1 µmol/L) or KB-0742 (1 µmol/L), cells were washed, and incubation continued until 48 hours posttreatment. Samples were collected before treatment (−4), immediately after treatment (0), and at 1, 2, 4, 8, 12, 16, 24, and 48 hours after washout for RNA sequencing (RNA-seq), qPCR, and Western blotting analyses.
(§2) The levels of p-Ser2, p-Ser5 and total RNA polymerase II, Myc, Mcl-1, cleaved PARP (cPARP), and cleaved Caspase 3 were assessed by Western blotting and quantified near-infrared detection and background corrected quantification of fluorescence intensity on an Odyssey Imaging System with IRDye secondary antibodies (LI-COR Biosciences). For quantification, the protein levels were normalized to GAPDH or HSP90, expressed as a ratio to DMSO or vehicle control at matched timepoints. The normalized relative protein levels of p-Ser2 were used for a treatment effect comparison by performing an ANOVA using PROC MIXED in SAS. The ANOVA model included treatment, timepoints and their interactions as fixed effects. […]

[1] = tested on: MCL1 mRNA in SU-DHL-10 cells; test: In vitro washout, MCL1 mRNA qPCR, SU-DHL-10; details: 1 µmol/L 4 h then washout, maintained for up to 16 hours after treatment
Experimental: (§3) Evaluation of the pharmacodynamic extent and duration of CDK9 inhibition were performed in vitro using the human DLBCL cell lines SU-DHL-4 and SU-DHL-10, harboring MYC amplification and MYC overexpression with P57T mutation, respectively. Cells were seeded 18 hours prior to treatment for 4 hours with one of three CDK9 inhibitors, enitociclib (0.25 and1 µmol/L), atuveciclib (1 µmol/L) or KB-0742 (1 µmol/L), cells were washed, and incubation continued until 48 hours posttreatment. Samples were collected before treatment (−4), immediately after treatment (0), and at 1, 2, 4, 8, 12, 16, 24, and 48 hours after washout for RNA sequencing (RNA-seq), qPCR, and Western blotting analyses. Total RNA was extracted from blood of patients and cell lines using RNeasy Plus Mini Kit (QIAGEN, #74136) and cDNA prepared with the Maxima First Strand cDNA Synthesis Kit for RT-PCR (Thermo Fisher Scientific, K1642) according to manufacturer's instructions. The integrity of purified total RNA was evaluated using an Agilent 2100 Bioanalyzer system and RNA 6000 Nano Kit (Agilent, #5067-1511). Differential gene expression analysis was performed (Fios Genomics) from RNA-seq data (Discovery Life Sciences). MYC and MCL1 mRNA levels were measured by qPCR in vitro and in vivo, using a Taqman qPCR system (Thermo Fisher Scientific), TaqMan Fast Universal PCR Master Mix (2X) no AmpErase (#4352042) and TaqMan probes for MYC (Hs00153408_m1) and MCL1 (Hs03043899_m1). RNA-seq data were analyzed using DESeq2 ([35]).

[2] = tested on: MYC mRNA in SU-DHL-10 cells; test: In vitro washout, MYC mRNA qPCR, SU-DHL-10; details: 1 µmol/L 4 h then washout, maintained for up to 16 hours after treatment
Experimental: as §3

[3] = tested on: RNA polymerase II Ser2 phosphorylation (p-Ser2) in SU-DHL-4 cells; test: In vitro washout, p-Ser2 Western blot, SU-DHL-4; details: 1 µmol/L, 4-hour treatment then washout
Experimental: as §1
(§4) The levels of p-Ser2, p-Ser5 and total RNA polymerase II, Myc, Mcl-1, cleaved PARP (cPARP), and cleaved Caspase 3 were assessed by Western blotting and quantified near-infrared detection and background corrected quantification of fluorescence intensity on an Odyssey Imaging System with IRDye secondary antibodies (LI-COR Biosciences). For quantification, the protein levels were normalized to GAPDH or HSP90, expressed as a ratio to DMSO or vehicle control at matched timepoints. The normalized relative protein levels of p-Ser2 were used for a treatment effect comparison by performing an ANOVA using PROC MIXED in SAS. The ANOVA model included treatment, timepoints and their interactions as fixed effects. The least square means (LSM), differences between the LSMs and associated P values were generated. The following primary antibodies were used: Rpb1 NTD (D8L4Y) rabbit antibody [Cell Signaling Technology (CST), #14958], anti-RNA polymerase II subunit B1 (phospho CTD Ser-2, clone 3E10) rat antibody (Merck, 04-1571-I), recombinant anti-c-MYC rabbit antibody (Y69; Abcam, #ab32072), MCL1 (D5V5L) rabbit antibody (CST, #39224), cleaved-PARP (Asp214) (E2T4K) mouse antibody (CST, #32563), HSP90 (C45G5) rabbit antibody (CST, #4877), and GAPDH mouse antibody (Zytomed Systems, #ZYT-RGM2-6C5).

[4] = tested on: RNA polymerase II Ser2 phosphorylation (p-Ser2) in SU-DHL-10 cells; test: In vitro washout, p-Ser2 Western blot, SU-DHL-10; details: 1 µmol/L, 4-hour treatment then washout
Experimental: as §1, §4

[5] = tested on: SU-DHL-4 and SU-DHL-10 cell lines; test: RNA-seq differential gene expression in DLBCL cell lines; details: for PHF23 and TP53RK by RNA-seq (in words): 1 µmol/L, 4 hours
Experimental: as §3, with “([35]). RNA-seq data generated from the analysis of two cell lines treated with the three CDK9 inhibitors was analyzed to investigate the differences in gene expression levels between various posttreatment timepoints and the pretreatment samples. Quality control assessment and exploratory data analysis by principal component analysis (PCA) were done on raw counts and on normalized count data. Normalization of RNA-seq count data was done using trimmed mean of M-values normalization and transformed with voom, resulting in log2 counts per million with associated precision weights. […] Significance values (Padj) were adjusted for multiple testing, by controlling the FDR using the Benjamini–Hochberg procedure. […] RNA-seq data generated from blood samples taken from patients before and after their first dose (C1D1) or after multiple doses, before and after their third dose (C1D15) were analyzed and normalized using the same pipeline as cell lines for comparisons.” for “([35]).”

[6] = tested on: Myc and Mcl-1 protein in SU-DHL-4 cells; test: In vitro washout, Myc and Mcl-1 protein Western blot, SU-DHL-4; details: 0.25 µmol/L enitociclib, atuveciclib (1 µmol/L)
Experimental: as §1, §2

SMILES	effect on cPARP (in words) (cPARP in SU-DHL-10 cells)	depletion of MCL1 mRNA levels [1]	depletion of MYC mRNA levels [2]	decrease of p-Ser2 levels [3] [%]	duration of p-Ser2 decrease [3]	p-Ser2 inhibition (in words) [4]	PHF23 and TP53RK by RNA-seq (in words) [5]	MCL1 mRNA by RNA-seq (in words) ([5]; 4 hours treatment, in vitro)	MYC mRNA by RNA-seq (in words) ([5]; 4 hours treatment, in vitro)	sustained Myc and Mcl-1 protein depletion for 48 hours (in words) [6]	ZPF36 by RNA-seq (in words) ([5]; 4 hours treatment, in vitro)
CCC(CC)c1cc(N[C@H]2CC[C@H](N)C2)n2nccc2n1 [KB-0742]	no effect	approximately 50%	approximately 50%	50	up to 12 hours	only in the presence of the treatment compound and not after washout	not	upregulated	not statistically significant	–	–
COc1cc(F)ccc1-c1ncnc(Nc2cccc(C[S@](C)(=N)=O)c2)n1 [atuveciclib, reference compound]	–	approximately 50%	approximately 50%	~50	up to 16 hours	only in the presence of the treatment compound and not after washout	not	downregulation is observed but not statistically significant	statistically significantly downregulated	this was achieved	significantly downmodulated
